# From article PMC5404542, “In Vitro and In Vivo Antifungal Profile of a Novel and Long-Acting Inhaled Azole, PC945, on Aspergillus fumigatus Infection” (Antimicrobial Agents and Chemotherapy, 2017)
# Like-named read-outs stand apart in the source and are kept apart here.
# Key:
# [1] = target: T1, AfCYP51B (Aspergillus fumigatus, UniProt E9QY26); assay: A. fumigatus CYP51 binding assay (ligand titration, type II difference spectra); settings: for Kd: 4 μM purified AfCYP51B
# T1 construct: made in house
# Protocol: (§1) A. fumigatus CYP51 binding properties were determined as described by Warrilow et al. ([35]). Test agents were titrated against 4 μM recombinant A. fumigatus CYP51A or CYP51B protein, and binding saturation curves were constructed from the change in the absorbance between the spectral peak and the trough. A rearrangement of the Morrison equation was used to determine the dissociation constant (Kd) values when ligand binding was tight ([36]).
# [2] = target: T2, AfCYP51B (Aspergillus fumigatus, UniProt E9QY26); assay: CYP51 reconstitution assay (sterol 14α-demethylase activity); type: biochemical; settings: for IC50: 0.5 μM AfCYP51B from membrane fraction of E. coli expression clones; for Ki: suggested from tight-binding inhibition, read-out: Ki.app, CYP51B
# T2 construct: made in house; host or cells: Escherichia coli (membrane fraction)
# T2 sequence (E9QY26 1-524): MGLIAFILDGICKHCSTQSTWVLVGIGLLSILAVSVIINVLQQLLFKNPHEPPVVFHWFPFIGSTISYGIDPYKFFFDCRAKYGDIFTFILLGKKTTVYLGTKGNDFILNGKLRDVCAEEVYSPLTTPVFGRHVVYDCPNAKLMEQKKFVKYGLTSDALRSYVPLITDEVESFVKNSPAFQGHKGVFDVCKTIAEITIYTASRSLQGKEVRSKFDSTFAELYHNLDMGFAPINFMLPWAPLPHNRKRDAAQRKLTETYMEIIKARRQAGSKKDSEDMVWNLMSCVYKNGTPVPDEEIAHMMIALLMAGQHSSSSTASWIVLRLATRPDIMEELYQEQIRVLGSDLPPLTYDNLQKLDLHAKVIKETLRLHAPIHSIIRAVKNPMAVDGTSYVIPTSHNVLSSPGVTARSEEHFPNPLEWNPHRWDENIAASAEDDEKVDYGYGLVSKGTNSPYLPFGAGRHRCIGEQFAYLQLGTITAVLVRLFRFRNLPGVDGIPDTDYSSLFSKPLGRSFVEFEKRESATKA
# Protocol: (§2) A CYP51 reconstitution assay system was used to determine 50% inhibitory concentrations (IC50s) ([37]). Test agent was added to a mixture of 0.5 μM CYP51, 1 μM A. fumigatus cytochrome P450 reductase isoenzyme 1 (AfCPR1), 50 μM eburicol, 4% (wt/vol) 2-hydroxypropyl-β-cyclodextrin, 0.4 mg ml^−1 isocitrate dehydrogenase, 25 mM trisodium isocitrate, 50 mM NaCl, 5 mM MgCl2, and 40 mM 3-(N-morpholino) propanesulfonic acid (MOPS) (pH ∼7.2). The mixtures were then incubated at 37°C for 10 min prior to initiation with 4 mM β-NADPHNa4 followed by shaking for 20 min at 37°C. Sterol metabolites were recovered by extraction with ethyl acetate followed by derivatization with 0.1 ml N,O-bis(trimethylsilyl)trifluoroacetamide:trimethylchlorosilane (99:1) and 0.3 ml anhydrous pyridine prior to analysis by gas chromatography-mass spectrometry.
# [3] = tested on: Penicillium chrysogenum (ATCC 9480); assay: MIC, CLSI; type: cell-based; settings: ATCC9480, 1 strain
# [4] = tested on: AR Candida albicans (20183.073, 20186.025); assay: MIC, CLSI; type: cell-based; settings: read-out: MIC (the MIC given is the MIC50)
# [5] = tested on: Candida krusei (ATCC 6258); assay: MIC, CLSI; type: cell-based; settings: Pichia kudriavzevii, ATCC6258; 1 strain, CLSI; read-out: MIC
# [6] = tested on: Cryptococcus neoformans (ATCC 24067); assay: MIC, CLSI; type: cell-based; settings: for MIC: Cryptococcus neoformans, ATCC24067, 1 strain, CLSI, read-out: MIC
# [7] = tested on: Rhizopus oryzae (ATCC 11145); assay: MIC, CLSI; type: cell-based
# [8] = tested on: BEAS2B cells infected with A. fumigatus; assay: Persistence of action on bronchial epithelial cells (galactomannan in supernatant); type: cell-based, Aspergillus fumigatus; settings: for IC50: Aspergillus fumigatus, BEAS-2B
# Protocol: The persistence of action of test agents was evaluated on immortalized bronchial epithelial cells (BEAS2B cells). […] Test and reference articles or undiluted DMSO (as vehicle) (0.5 μl/well) was added to the appropriate wells of the washout plate to give a final concentration of 0.5% DMSO. The plate was incubated for exactly 1 h at 37°C and 5% CO2. After the incubation time had elapsed, all wells on the washout plate were aspirated, and growth medium (100 μl/well) was added across the plate. After 24 h of incubation at 37°C, test and reference articles or undiluted DMSO (as vehicle) (0.5 μl/well) was added to the appropriate wells of the nonwashout plate to give a final concentration of 0.5% DMSO. The plate was incubated for exactly 1 h at 37°C and 5% CO2, after which A. fumigatus conidia were added across both plates to a final concentration of 1 × 10^3/well.
# [9] = Precipitation in EUCAST medium; type: physicochemical
# [10] = Plasma protein binding; type: in vitro ADME
# [11] = Systemic exposure after topical/intranasal treatment; type: in vivo; settings: data not shown
# [12] = target: T3, AfCYP51A (Aspergillus fumigatus, UniProt Q4WNT5); assay: A. fumigatus CYP51 binding assay (ligand titration, type II difference spectra); design: made in house
# T3 sequence (Q4WNT5 whole entry): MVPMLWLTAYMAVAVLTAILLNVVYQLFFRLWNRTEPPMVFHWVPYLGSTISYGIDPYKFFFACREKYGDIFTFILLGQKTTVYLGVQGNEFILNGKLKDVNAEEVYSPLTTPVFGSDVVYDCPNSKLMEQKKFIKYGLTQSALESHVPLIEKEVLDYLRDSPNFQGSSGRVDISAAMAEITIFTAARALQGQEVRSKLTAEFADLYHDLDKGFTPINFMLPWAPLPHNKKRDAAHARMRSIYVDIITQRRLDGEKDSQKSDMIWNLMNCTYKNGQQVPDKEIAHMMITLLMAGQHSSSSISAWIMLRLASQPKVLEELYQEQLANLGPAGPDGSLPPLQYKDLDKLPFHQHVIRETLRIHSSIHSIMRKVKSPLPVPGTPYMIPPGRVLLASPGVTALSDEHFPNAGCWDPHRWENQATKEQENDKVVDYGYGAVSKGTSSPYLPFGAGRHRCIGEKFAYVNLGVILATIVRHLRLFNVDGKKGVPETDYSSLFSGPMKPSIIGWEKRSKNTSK
# Protocol: as §1
# [13] = target: T3, AfCYP51A; assay: CYP51 reconstitution assay (sterol 14α-demethylase activity); type: biochemical; design: made in house; host or cells: Escherichia coli (membrane fraction)
# Protocol: as §2
# [14] = tested on: A. fumigatus hyphae (NCPF2010); assay: Persistence of action on A. fumigatus hyphae (resazurin-based microtiter assay); settings: for IC50: Aspergillus fumigatus, NCPF2010, 16 h, read-out: Hyphae IC50, No washout; for Hyphae Fold change: washout versus no washout
# Protocol: The persistence of action of test agents was calculated for A. fumigatus hyphae (NCPF2010). […] The plates were incubated for exactly 20 min at 35°C and 5% CO2. After the incubation time had elapsed, all wells on the designated washout plate were aspirated, and growth medium (100 μl/well) was added across the plate. […] Resazurin (0.04%; diluted in growth medium) was added to all wells of both nonwashout and washout plates (5 μl/well) to give a final concentration of 0.002% resazurin. The plates were incubated at 35°C and 5% CO2 for 16 h. […] The percent inhibition for each well was calculated, and the IC50 was calculated from the concentration-response curve generated for each test compound by use of a four-parameter logistic equation (Dotmatics, Bishops Stortford, United Kingdom).
# [15] = tested on: A. fumigatus (ATCC 13073 [strain NIH 5233]); assay: In vivo antifungal activity, intranasal treatment of temporarily neutropenic immunocompromised mice; settings: for incidence of rolling behavior: 14 μg/mouse intranasally once daily
# Protocol: The mice were reared on a standard diet and tap water ad libitum. […] Conidia were aseptically dislodged from the agar plates and suspended in sterile distilled water with 0.05% Tween 80 and 0.1% agar. […] On day 0, 30 μl of the conidial suspension was administered intranasally.
# Test agents suspended in physiological saline were administered daily intranasally (35 μl) on days 1 to 6, and the survival of animals was recorded for 7 days. […] Deaths and the body weights of surviving animals were monitored daily. A body weight loss of >20% compared to an animal's weight on day 1 and mouse death were both defined as “dropout” events. Animals that lost >20% of their initial body weight were sacrificed. […] Bronchoalveolar lavage fluid (BALF) was collected on day 7 postinfection or on the day that the mouse dropped out of the study. The Aspergillus GM concentration in BALF was determined by use of Platelia GM-EIA kits (Bio-Rad Laboratories). The value was provided as the “cutoff index” (COI), which was calculated by the following formula: COI = OD in sample/OD in cutoff control (provided by the kit).
# [16] = Rhizopus arrhizus, ATCC11145, 1 strain, read-out: MIC
# [17] = 1 h contact before infection, GM readout after 24 h, read-out: BEAS2B cells IC50, No washout
# [18] = 1 h contact, 24-h washout prior to infection, GM readout, read-out: BEAS2B cells IC50, Washout
# [19] = 0.56 μg/mouse intranasally once daily days 1 to 6
# [20] = 2.8 μg/mouse intranasally once daily days 1 to 6
# [21] = 14 μg/mouse intranasally once daily days 1 to 6
# [22] = 70 μg/mouse intranasally once daily days 1 to 6
compound,measurement,setting,value
"Cc1cc(N2CCN(c3ccc(C(=O)Nc4ccc(F)cc4)cc3)CC2)ccc1OC[C@@H]1CO[C@@](Cn2cncn2)(c2ccc(F)cc2F)C1 [PC945, 4-[4-(4-{[(3R,5R)-5-(2,4-difluorophenyl)-5-(1H-1,2,4-triazol-1-ylmethyl)oxolan-3-yl]methoxy}-3-methylphenyl)piperazin-1-yl]-N-(4-fluorophenyl)benzamide]",difference spectra on titration against purified CYP51B,[1],type II difference spectra
same,Kd,"[1]; Kd2, AfCYP51B, modified two-site allosteric model",320 nM
same,IC50,[2],220 nM
same,Ki,[2],< 1 nM
same,MIC,[3],> 8 µg/mL
same,MIC50,[4],8.25 µg/mL
same,MIC,[5],0.125 µg/mL
same,fold more potent than both voriconazole and posaconazole,[6]; C. neoformans,2 fold
same,MIC,[6],0.008 µg/mL
same,MIC,[7]; 1 strain,2 µg/mL
same,MIC,[7]; [16],2 µg/mL
same,IC50,[8]; [17],0.0037 µg/mL
same,IC50,[8]; [18],0.043 µg/mL
same,concentration at which compound precipitated in EUCAST medium,[9],> 4000 ng/mL
same,plasma protein binding,[10],high levels of plasma protein binding
same,systemic exposure,[11],very low systemic exposure
same,Kd,[12],500 nM
same,difference spectra on titration against purified CYP51A,[12],type II difference spectra
same,IC50,[13],230 nM
same,Ki,[13],< 1 nM
same,IC50,[14],0.0001 µg/mL
same,fold more potent than posaconazole at inhibiting hyphal growth,[14]; no washout,4.5 fold
same,fold more potent than voriconazole at inhibiting hyphal growth,[14]; no washout,110 fold
same,Median days of survival,[15]; [19],6 days
same,No. of survivors on day 7/total no. of mice,[15]; [19],4/8
same,survivors on day 7 (%),[15]; [19],50%
same,Median days of survival,[15]; [20],6.5 days
same,No. of survivors on day 7/total no. of mice,[15]; [20],5/8
same,survivors on day 7 (%),[15]; [20],63%
same,incidence of rolling behavior,[15],substantially inhibited
same,Median days of survival,[15]; [21],Undefined
same,No. of survivors on day 7/total no. of mice,[15]; [21],10/16
same,survivors on day 7 (%),[15]; [21],63%
"CC[C@@H]([C@H](C)O)n1ncn(-c2ccc(N3CCN(c4ccc(OC[C@@H]5CO[C@@](Cn6cncn6)(c6ccc(F)cc6F)C5)cc4)CC3)cc2)c1=O [Posaconazole, posaconazole]",Kd,"[1]; Kd1, AfCYP51B, PC945: modified two-site allosteric model, posaconazole: single tight-binding Kd",12 nM
same,IC50,[2],170 nM
same,Ki,[2],< 1 nM
same,MIC,[3],0.13 µg/mL
same,MIC50,[4],8.13 µg/mL
same,MIC,[6],0.016 µg/mL
same,MIC,[7]; 1 strain,>8 µg/mL
same,MIC,[7]; [16],> 8 µg/mL
same,IC50,[8]; [17],0.0031 µg/mL
same,IC50,[8]; [18],0.046 µg/mL
same,BEAS2B cells Fold change,[8]; washout versus no washout,14.7 fold
same,Kd,[12],960 nM
same,IC50,[13],160 nM
same,Ki,[13],< 1 nM
same,IC50,[14],0.00045 µg/mL
same,Hyphae Fold change,[14],4.90 fold
same,Hyphae Fold change,[14]; listed as posaconazole,4.9 fold
same,Median days of survival,[15]; [20],5 days
same,No. of survivors on day 7/total no. of mice,[15]; [20],1/8
same,survivors on day 7 (%),[15]; [20],13%
same,incidence of rolling behavior,[15],not
same,Median days of survival,[15]; [21],6 days
same,No. of survivors on day 7/total no. of mice,[15]; [21],7/16
same,survivors on day 7 (%),[15]; [21],44%
same,Median days of survival,[15]; [22],Undefined
same,No. of survivors on day 7/total no. of mice,[15]; [22],6/8
same,survivors on day 7 (%),[15]; [22],75%
